Measured values from article PMC4821601, “The Interactions of P-Glycoprotein with Antimalarial Drugs, Including Substrate Affinity, Inhibition and Regulation” (PLoS ONE, 2016).
Read-outs that look alike come from different tables or passages of the source. Marks after values point to notes of the source that are not given here.

Experiments:
[1] = Bidirectional transport (Papp, efflux ratio) of antimalarials through Caco-2 cell monolayers; format: in vitro ADME, human; details: human; for Papp at 120 min: Caco-2, Caco-2 monolayers
Procedure: (§1) The initial experiments were conducted in mid-40s passage cells and repeated in early 80s passage Caco-2 cells. […] In order to maintain equivalent transport medium (HBSS/HBSS with inhibitor) level both outside and inside the chambers, 300 μL was used as medium in the apical chambers and 600 μL in the basolateral chambers. […] Drugs were co-incubated with MRCP, BCRP and ATP hydrolysis blockers to determine the involvement of other efflux mechanisms. Prior to the experiment, the transport medium, HBSS or HBSS with P-gp inhibitors were pre-incubated with the cells for 30 minutes. Following incubation, inserts were placed in new well plates and donor chamber is replaced with drug or drug with inhibitor and the receiver chamber with blank HBSS or HBSS with inhibitor. Transport medium was collected from the receiver chamber after stirring at time intervals of 30, 60, 90 and 120 minutes and was replaced with the same volume of fresh HBSS, or HBSS with inhibitor, when P-gp inhibitors were used in the study. At the end of the experiment 100 μL of medium was removed from the donor chamber in addition to medium collected from the receiver chamber during the study. The cells were then washed thoroughly in cold (4°C) PBS and cell membranes attached to the inserts were sonicated for 10 minutes in a sonicating water bath and centrifuged at 10,000 g for 10 minutes. Supernatant was frozen at -80°C until assayed. […] CL.vol=[…].vol = clearance volume (mL), n = time (min), Aa = amount in acceptor compartment at time n (pmols), Cd0 = concentration in donor compartment at time zero (nM), Vd = volume of the donor compartment (mL), Ca = concentration in acceptor compartment at the previous time point (nM), Vs = sample volume of previous time point (mL), Ac = amount of compound associated with the cells (pmol), Nfin = final time point (min). […] The cleared volume was plotted against time and the slope of the regression line was divided by the surface area to obtain the Papp values. […] The method from Davis and colleagues was adopted with slight modifications. Separations were performed using an Apollo C18 (5 μm, 4.6x150mm) column attached to a matched guard column (5 μm, 4.6x5.5 mm). […] The injection volume was 40 μL and column oven was maintained at 35°C. The analytes were detected at 222 nm and the retention time was 5.6 minutes. Assay developed by Pussard and co-workers were used and slight modifications were done to adjust laboratory conditions. Separation was done using a Prevail C18 (3 μm, 4.6x150mm) column attached to a Direct-connect^TM universal column prefilter. The mobile phase consisted of 20 mM (w/v) KH2PO4 in deionized water at pH 3.0 and acetonitrile (82:18) v/v. […] The injection volume was 40 μL and column oven was maintained at 30°C. The analytes were detected at 343 nm with a retention time of 2.4 minutes. […] Separations were performed using an Apollo C18 (5 μm, 4.6x150mm) column attached to matched guard column (5 μm, 4.6x5.5mm). […] The injection volume was 40 μL and column oven was maintained at 30°C. The analytes were detected at 660 nm with a retention time of 3.8 minutes. A 40 μL sample was spiked with 5 μL 0.5 mM artemisinin internal standard. […] The pipettor was adjusted to the maximum volume (100 μL). […] Pre-treated samples were loaded into the tips by gently aspirating and discarding into the same vial. The process was repeated 10 times in order to increase binding efficiency of drugs to the OMIX 96 C4 matrix. […] The LC-MS method described by […] and co-workers were modified to suit the LC-MS-MS conditions. […] Wexford, Ireland) at 40°C. […] Quantitation was performed in multiple reactions monitoring, MRM mode, using DUIS (ESI^+ and APCI^+) ion sources. […] The optimized mass spectra were acquired with an interface voltage of 4.5 kV, a detector voltage of 1.0 kV, a heat block temperature of 500°C and a desolvation temperature of 160°C.

Caco-2 cell monolayers = test: as above; format: in vitro ADME, human
Procedure: as §1

`OC(c1cc(C(F)(F)F)nc2c(C(F)(F)F)cccc12)C1CCCCN1` (centres unmarked) [MQ, mefloquine] showed a Papp at 120 min ([1]; drug alone, read-out: Ap-Bas directional Papp, range over concentrations tested) of 6 to 10 ×10⁻⁶ cm/s, a Papp at 120 min ([1]; drug alone, read-out: Bas-Ap directional Papp, range over concentrations tested) of 5 to 7 ×10⁻⁶ cm/s and a Papp at 120 min ([1]; read-out: permeability across the gastrointestinal epithelium (class)) of 1 to 25 ×10⁻⁶ cm/s. For the same compound, the Papp at 120 min ([1]; summary in abstract, methylene blue depending on the direction of transport, read-out: permeability) was ~10 ×10⁻⁶ cm/s, the efflux ratio at 120 min, 100 µM ([1]; Caco-2, Conc (μM) + inhibitor (μM): 100, Bas-Ap divided by Ap-Bas) was 1.2 and the efflux ratio at 120 min, 10 µM ([1]; Caco-2, Conc (μM) + inhibitor (μM): 10, Bas-Ap divided by Ap-Bas) was 0.7. The Papp at 120 min, 10 µM ([1]; Caco-2, Conc (μM) + inhibitor (μM): 10, first-named drug measured, read-out: Papp Ap-Bas) was 9.9 ± 0.7 ×10⁻⁶ cm/s, the Papp B→A at 120 min, 10 µM ([1]; Caco-2, Conc (μM) + inhibitor (μM): 10, first-named drug measured, read-out: Papp Bas-Ap) was 6.6 ± 0.4 ×10⁻⁶ cm/s and the efflux ratio at 120 min, 20 µM ([1]; Caco-2, Conc (μM) + inhibitor (μM): 20, Bas-Ap divided by Ap-Bas) was 0.9. It also gave a Papp at 120 min, 20 µM ([1]; Caco-2, Conc (μM) + inhibitor (μM): 20, first-named drug measured, read-out: Papp Ap-Bas) of 5.8 ± 0.7 ×10⁻⁶ cm/s, a Papp B→A at 120 min, 20 µM ([1]; Caco-2, Conc (μM) + inhibitor (μM): 20, first-named drug measured, read-out: Papp Bas-Ap) of 5.3 ± 0.9 ×10⁻⁶ cm/s and a Papp at 120 min, 100 µM ([1]; Caco-2, Conc (μM) + inhibitor (μM): 100, first-named drug measured, read-out: Papp Ap-Bas) of 8.9 ± 0.7 ×10⁻⁶ cm/s. For the same compound, the Papp B→A at 120 min, 100 µM ([1]; Caco-2, Conc (μM) + inhibitor (μM): 100, first-named drug measured, read-out: Papp Bas-Ap) was 11.4 ± 0.8 ×10⁻⁶ cm/s, the Net flow direction (Caco-2 cell monolayers; Conc (μM) + inhibitor (μM): 10) was “Diffusion (0.02) ^*” and the Net flow direction (Caco-2 cell monolayers; Conc (μM) + inhibitor (μM): 20) was “Diffusion (0.66)”. The Net flow direction (Caco-2 cell monolayers; Conc (μM) + inhibitor (μM): 100) was “Diffusion (0.08)” and the “drug absorption predicted from Papp” value (Caco-2 cell monolayers; based on FDA biopharmaceutical classification system) was 50–84%.
